The record followed here is patent US4341798A, “Amide derivatives of p-isobutyl-phenyl-propionic acids and related pharmaceutical compositions” (Laboratori Prophin S.p.A., priority 1980, dated 1982).

Where “and” joins values, the source holds several entries; their conditions need not be identical. Equal values may be shown once. Read-outs that look alike come from different tables or passages of the source.

A word on the ED50: it is the dose at which the effect has come halfway, by size or by number of responders. As a reminder, the LD50 is the dose at which mortality reaches 50%.

Series [1] in a line: (D) Analgesic activity in the Flinch-jump test in the rat. The format is in vivo. The source says: (D) Analgesic activity in the Flinch-jump test in the rat.
(Turner R. A. "Screening methods in Pharmacology" Accademic Press--New York 1965).

A short description of series [2]: Acute toxicity by oral route in the rat. The format is in vivo.
Series [3] is described as follows: Therapeutical indexes (TD50 of 28 day subacute toxicity versus ED50 of tests A-D). The format is in vivo. The note with it: TD50 (28 days) versus ED50 of tests A-D.
A short description of series [4]: Oedema induced by kaolin in the rat (chronic inflammation). Particulars: 100 mg/kg p.o., controls 13. The series is classed as in vivo. The source says:
(§1) The anti-inflammatory activity has been tested by the classic tests of the oedema induced by kaolin and egg white, which repeat two significant and different phases in the pathogenesis of the inflammatory process.
(§2) The kaolin, injected in the tibio-tarsal connection of the rat, gives place to a chronic inflammation, whereas the egg white, injected in the subplantar area of the rat, causes an acute inflammatory state.

A short description of the next series: Solubility. The series is classed as physicochemical.
For series [5] the following is noted: rat.
Series [6] in a line: in vivo. Particulars: rat, ip.
Series [7] is described as follows: Acute toxicity by intraperitoneal route in the mouse. The note with it: in vivo, ip.
Series [8] can be described thus: Teratogenic or embryotoxic action in the rabbit. The series is classed as in vivo.
Series [9] is described as follows: (A) Inhibition of the oedema induced by carragenin in the rat paw. The series is classed as in vivo. Particulars: for ED50: rat paw. An excerpt:
(A) Inhibition of the oedema induced by carragenin in the […]. Arch. Int. Pharmacodyn. 99,474. 1954). […] The subject oedema was induced in the rat and in the control animals caused a volume increase of the paw by 57.55%.

The nature of series [10]: Acute toxicity per os in the mouse. The series is classed as in vivo. An excerpt: The compounds of the invention have been subjected to pharmacological tests, showing that they have a modeste or even negligible toxicity.
Series [11] in a line: Oedema induced by egg white in the rat (acute inflammation). The series is classed as in vivo. Particulars: 100 mg/kg p.o., controls 20.
Excerpt: as §1, §2

Series [12] is described as follows: (C) Analgesic activity on the stretching induced by acetic acid in the mouse. The format is in vivo. An excerpt:
(C) Analgesic activity on the "stretching" induced by acetic acid in the mouse.
(Fennessy M. R., Lee C. R. "Methods in Narcotic Research" Eds. Ehrenpreise Neidle Dekker--New York 1975).

Series [13] in a line: Teratogenic or embryotoxic action in the mouse. The series is classed as in vivo.
The conditions of series [14]: for Mortality in 28 days: male and female rats.
A short description of series [15]: (B) Inhibition of the arthritis induced by Freund adjuvant in the rat. The format is in vivo. An excerpt:
(B) Inhibition of the arthritis induced by Freund adjuvant in the rat. (Newbould B.B. Brit. Journ. of Pharmacol. 21,127, 1963).

Series [16] is described as follows: in vivo. The note with it: rat.
Setting [17] is: Flinch-jump test, rat, read-out: ED50, dose causing a 50% increase of the algogenic stimulus.
Setting [18] is: rat, molar basis, read-out: ED50, Flinch-jump test (molar basis).
[19] abbreviates: molecular weight taken into consideration, read-out: ED50, inhibition of carragenin oedema (molar basis).
[20] abbreviates: read-out: ED50, inhibition of carragenin oedema.
Setting [21] is: mouse, molar basis, read-out: ED50, stretching induced by acetic acid (molar basis).
Where [22] appears, read: mouse, read-out: ED50, stretching induced by acetic acid.
The mark [23] stands for this setting: rat, molar basis, read-out: ED50, Freund adjuvant arthritis (molar basis).

With `CC(C)Cc1ccc(C(C)C(=O)Nc2cccc(C(F)(F)F)c2)cc1` (stereo not shown) [BT-03, p-isobutyl-phenyl-propionamide of metatrifluorotoluidine], the 50% effective dose (ED50) worked out at 129 mg/kg in series [1] (setting [17]); 370 µmol/kg in series [1] (setting [18]); 290 µmol/kg in [9] (setting [19]); 103 mg/kg in series [9] (setting [20]); 350 µmol/kg in series [12] (setting [21]); 123 mg/kg in series [12] (setting [22]). The ED50 in series [15] (Freund adjuvant, rat, read-out: ED50, dose which causes the volume increase of the paw to be reduced by 50%) worked out at 87 mg/kg; in series [15] (setting [23]), 250 µmol/kg. Further, the “activity, times greater than that of the reference substance (Ibuprofen)” value in series [1] (molar basis) is on record as “about 1.4 times”. Also, in [1] (rat), the “increase of the algogenic threshold” value is given as “increase of the algogenic threshold, proportionally to the administered dose”. For the same molecule, in [2] (both by oral and by intraperitoneal route), the “acute toxicity” value is on record as “very low acute toxicity”. The LD50 in series [2] (rat, in vivo, po, 4000 mg/kg) is more than 4000 mg/kg; in “in vivo [6]” (LD50 by intraperitoneal route in the rat, female rats), 1760 mg/kg; in the series “in vivo [6]” (LD50 by intraperitoneal route in the rat, male rats), 1620 mg/kg; in the series “in vivo [6]” (LD50 ± f.l. (P 0,05), intraperitoneal, f.l. = fiduciary limits), 1200 ± 264 mg/kg; in [7] (female mice) it was 1190 mg/kg; in series [7] (male mice) it was 940 mg/kg. The “therapeutical index compared with Ibuprofen” value in series [3] is listed as “A constant advantage”. Besides, the “Kaolin test increase %” value in series [4] turned out to be 7 ± 5.5%. Moreover, in the series “Solubility”, the “solubility” value was “insoluble in water and soluble in most organic solvents”. Moreover, the “Mortality after 7 days” value in series [5] (in vivo) is 1/6 and 5/6 and 6/6. For the same molecule, the “teratogenic or embryotoxic action” value in series [8] and in series [13] was “have not demonstrated any teratogenic or embryotoxic action” in each case. Moreover, the “times less active than Naproxene” value in series [9] (molar basis) is reported as “about 1.4 times”. Moreover, the figures for the “times more active than Ibuprofen” value in [9] (molar basis) and in [12] (molar basis) were 2.8 times and “about 1,4 times”, respectively. Further, the “LD50 by oral route in the mouse” value in series [10] is reported as “has not permitted as well to determine any LD50 value”. Also, the “Egg white test increase %” value in series [11] was 10 ± 5.1%. In addition, the “inhibition of stretching” value in series [12] (mouse) is recorded as “does inhibit the stretching induced by acetic acid proportionally to the administered dose”. The “animals died during the test period” value in series [14] (rat, in vivo, 200 mg/kg) is “two”. Also, the “activity with respect to Ibuprofen” value in [15] (proportionally to the administered doses) is “superior as regards the activity and of lower toxicity with respect to Ibuprofen”. In addition, the “inhibition of lesions directly induced by Freund adjuvant in the injected paw” value in series [15] (rat) is given as “inhibit the lesions directly induced by the Freund adjuvant in the injected paw”. The “inhibition of the development of secundary lesions” value in [15] (rat) is recorded as “capable of inhibiting the development of the secundary lesions”. Further, in “in vivo [16]”, the TD50 at 672 h came out at 660 µmol/kg.
In the case of `CC(C)Cc1ccc(C(C)C(=O)NC(CCC(=O)O)C(=O)O)cc1` (stereo not shown) [glutamic amide of the p-isobutyl-phenyl-propionic acid], the “solubility” value in “Solubility” is “not soluble in water, diluted HCl and cyclohexane”.
For `CC(C)Cc1ccc(C(C)C(=O)O)cc1` (stereo not shown) [Ibuprofen, p-isobutyl-phenyl-propionic acid], the ED50 in series [1] (setting [17]) was 108 mg/kg; in series [1] (setting [18]) it was 520 µmol/kg; in [9] (setting [19]), 820 µmol/kg; in series [9] (setting [20]), 170 mg/kg; in series [12] (setting [21]) it was 500 µmol/kg; in series [12] (setting [22]), 105 mg/kg. Further, the ED50 in [15] (setting [23]) is 300 µmol/kg. Also, the “Mortality after 7 days” value in series [5] (250 mg/kg intraperitoneal) is 0/6; in [5] (360 mg/kg intraperitoneal), 2/6; in [5] (520 mg/kg intraperitoneal), 5/6; in series [5] (750 mg/kg intraperitoneal), 6/6. Moreover, the “Mortality in 28 days” value in series [14] (25 mg/kg) was 0/10; in series [14] (50 mg/kg), 3/10; in [14] (100 mg/kg), 4/10; in series [14] (200 mg/kg), 5/10. Moreover, in “in vivo [16]”, the TD50 at 672 h was determined as 590 µmol/kg.
On to “lysinamide of p-isobutyl-phenyl-propionic acid”, for which the “Kaolin test increase %” value in [4] is listed as 7.1 ± 5.3%. In addition, the “Egg white test increase %” value in series [11] was 11 ± 5.6%.
Take `COc1ccc2cc([C@H](C)C(=O)O)ccc2c1` [Naproxene, d-2(6'-methoxy-2'-naphtyl)-propionic acid]: the ED50 came to 210 µmol/kg in series [9] (setting [19]) and 47.9 mg/kg in [9] (setting [20]). Also, the entries for the “Mortality in 28 days” value in [14] (25 mg/kg), in series [14] (50 mg/kg) and in [14] (100 mg/kg) were 2/10, 6/10 and 10/10, respectively.
